From ChEMBL document CHEMBL3425433, “Discovery of bicyclic pyrazoles as class III histone deacetylase SIRT1 and SIRT2 inhibitors” (Bioorg Med Chem Lett, 2015)
Activity calls are given as the source filed them. The calls are words filed in the database; no cut-off is given here.

Columns and labels:
[1] = target: T1, NAD-dependent protein deacetylase sirtuin-1 (Homo sapiens, UniProt Q96EB6); assay: Inhibition of His-tagged human recombinant SIRT1 expressed in Escherichia coli using Cbz-Lys(Ac)-AMC as substrate by fluorescence assay
T1 sequence (Q96EB6 whole entry): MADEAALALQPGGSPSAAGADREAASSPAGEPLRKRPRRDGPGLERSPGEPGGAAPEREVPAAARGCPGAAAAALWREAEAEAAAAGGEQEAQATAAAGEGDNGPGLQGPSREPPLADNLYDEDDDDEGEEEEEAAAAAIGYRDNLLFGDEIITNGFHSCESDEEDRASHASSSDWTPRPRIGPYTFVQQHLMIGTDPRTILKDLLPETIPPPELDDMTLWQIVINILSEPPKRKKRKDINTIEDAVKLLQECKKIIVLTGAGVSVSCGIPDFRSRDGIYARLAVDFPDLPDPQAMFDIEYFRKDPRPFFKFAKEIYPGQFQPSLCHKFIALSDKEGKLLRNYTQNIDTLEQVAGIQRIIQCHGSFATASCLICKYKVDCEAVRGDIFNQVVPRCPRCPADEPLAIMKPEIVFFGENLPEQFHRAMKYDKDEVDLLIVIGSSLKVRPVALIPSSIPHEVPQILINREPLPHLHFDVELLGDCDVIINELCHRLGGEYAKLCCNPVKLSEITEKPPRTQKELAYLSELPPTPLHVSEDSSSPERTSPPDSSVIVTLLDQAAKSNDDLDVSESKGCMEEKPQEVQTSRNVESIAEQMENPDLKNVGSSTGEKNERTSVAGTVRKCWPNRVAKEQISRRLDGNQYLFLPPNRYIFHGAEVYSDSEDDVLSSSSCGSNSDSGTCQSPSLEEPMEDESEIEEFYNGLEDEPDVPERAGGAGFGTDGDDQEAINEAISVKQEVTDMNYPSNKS

[2] = target: T2, Protein deacetylase HDAC6 (Homo sapiens) (UniProt Q9UBN7); assay: Inhibition of HDAC6 (unknown origin)
T2 sequence (whole entry): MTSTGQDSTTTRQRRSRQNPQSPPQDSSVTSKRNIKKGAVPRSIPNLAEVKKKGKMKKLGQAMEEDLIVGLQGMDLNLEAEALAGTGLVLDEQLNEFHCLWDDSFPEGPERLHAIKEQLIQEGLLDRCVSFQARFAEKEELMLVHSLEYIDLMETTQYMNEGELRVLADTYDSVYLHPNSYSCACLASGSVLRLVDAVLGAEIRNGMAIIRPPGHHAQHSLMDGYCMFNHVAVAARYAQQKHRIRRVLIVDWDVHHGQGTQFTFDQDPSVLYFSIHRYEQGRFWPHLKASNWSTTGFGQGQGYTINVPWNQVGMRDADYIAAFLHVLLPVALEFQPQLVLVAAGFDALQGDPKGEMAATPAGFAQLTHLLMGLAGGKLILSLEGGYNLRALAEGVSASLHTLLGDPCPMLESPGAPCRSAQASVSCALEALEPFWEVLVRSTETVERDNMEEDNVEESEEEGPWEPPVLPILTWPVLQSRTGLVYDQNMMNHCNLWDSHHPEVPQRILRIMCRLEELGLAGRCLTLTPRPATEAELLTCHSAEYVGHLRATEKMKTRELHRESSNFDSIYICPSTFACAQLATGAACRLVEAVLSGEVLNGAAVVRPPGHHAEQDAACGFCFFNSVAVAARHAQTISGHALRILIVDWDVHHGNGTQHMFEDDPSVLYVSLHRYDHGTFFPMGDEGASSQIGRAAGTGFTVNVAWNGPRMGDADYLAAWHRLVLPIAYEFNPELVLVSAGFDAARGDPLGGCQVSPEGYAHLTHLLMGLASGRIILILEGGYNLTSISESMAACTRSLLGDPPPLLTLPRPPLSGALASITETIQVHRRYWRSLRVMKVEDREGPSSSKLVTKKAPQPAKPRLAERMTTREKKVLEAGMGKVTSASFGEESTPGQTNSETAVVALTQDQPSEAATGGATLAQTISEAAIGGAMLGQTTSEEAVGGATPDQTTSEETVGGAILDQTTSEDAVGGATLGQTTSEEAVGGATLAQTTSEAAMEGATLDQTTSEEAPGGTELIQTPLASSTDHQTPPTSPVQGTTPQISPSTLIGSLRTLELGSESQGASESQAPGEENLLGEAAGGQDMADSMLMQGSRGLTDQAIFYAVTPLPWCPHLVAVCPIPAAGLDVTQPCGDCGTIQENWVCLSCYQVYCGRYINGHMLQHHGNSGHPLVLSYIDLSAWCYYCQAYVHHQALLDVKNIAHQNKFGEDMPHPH

[3] = target: T3, Histone deacetylase 7 (Homo sapiens) (UniProt Q8WUI4); assay: Inhibition of HDAC7 (unknown origin)
T3 sequence (whole entry): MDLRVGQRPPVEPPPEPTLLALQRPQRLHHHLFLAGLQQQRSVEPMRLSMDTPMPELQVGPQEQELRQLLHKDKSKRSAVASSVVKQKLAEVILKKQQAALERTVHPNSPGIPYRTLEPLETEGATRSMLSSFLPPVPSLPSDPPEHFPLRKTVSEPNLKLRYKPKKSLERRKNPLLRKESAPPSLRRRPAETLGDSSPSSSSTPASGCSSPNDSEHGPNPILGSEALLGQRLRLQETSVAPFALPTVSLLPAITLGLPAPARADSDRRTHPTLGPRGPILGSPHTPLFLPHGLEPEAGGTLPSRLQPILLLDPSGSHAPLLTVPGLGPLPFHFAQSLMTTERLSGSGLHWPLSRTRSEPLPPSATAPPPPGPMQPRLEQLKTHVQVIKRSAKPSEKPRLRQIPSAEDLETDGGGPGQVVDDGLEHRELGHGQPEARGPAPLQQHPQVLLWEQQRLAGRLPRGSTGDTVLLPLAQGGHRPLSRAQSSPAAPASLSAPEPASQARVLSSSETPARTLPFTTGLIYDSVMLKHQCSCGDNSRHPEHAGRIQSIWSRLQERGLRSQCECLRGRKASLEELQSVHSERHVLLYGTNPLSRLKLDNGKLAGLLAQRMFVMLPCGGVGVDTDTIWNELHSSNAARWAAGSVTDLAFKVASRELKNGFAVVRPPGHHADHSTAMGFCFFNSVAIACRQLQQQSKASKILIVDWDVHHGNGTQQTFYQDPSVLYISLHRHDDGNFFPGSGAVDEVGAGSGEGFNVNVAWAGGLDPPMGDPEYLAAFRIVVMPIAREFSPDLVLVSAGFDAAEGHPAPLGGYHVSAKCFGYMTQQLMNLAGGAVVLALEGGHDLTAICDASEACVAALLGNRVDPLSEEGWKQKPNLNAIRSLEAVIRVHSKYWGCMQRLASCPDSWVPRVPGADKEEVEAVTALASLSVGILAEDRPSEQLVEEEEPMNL

Row | SMILES | IC50 [1] | inhibition [2] | inhibition [3]
1 | NC(=O)C1CCCc2c(-c3nc4ccccc4s3)n[nH]c21 (racemic) | 2200 nM | inactive | inactive
2 | Cn1cc(-c2n[nH]c3c2CCCC3C(N)=O)c2ccccc21 (racemic) |  | inactive | inactive
3 | CC1(C)Cc2c(-c3ccc(Br)cc3)n[nH]c2C(C(N)=O)C1 (racemic) |  | inactive | inactive
4 | NC(=O)C1CC(c2ccccc2)Cc2c(-c3ccc(Cl)cc3)n[nH]c21 (mixture of isomers) |  | inactive | inactive
5 | CNC(=O)C1CCCc2c(-c3ccc(Cl)cc3)n[nH]c21 (racemic) |  | inactive | inactive
6 | Cn1c(-c2n[nH]c3c2CCCC3C(N)=O)cc2cc(Cl)ccc21 (racemic) |  | inactive | inactive
7 | CC1(C)Cc2c(-c3cc4ccccc4s3)n[nH]c2C(C(N)=O)C1 (racemic) |  | inactive | inactive
8 | NC(=O)C1CCCc2c(-c3cc4ccccc4[nH]3)n[nH]c21 (racemic) |  | inactive | inactive
9 | NC(=O)C1CCCCc2c(-c3ccc(Cl)cc3)n[nH]c21 (racemic) | 2100 nM | inactive | inactive
10 | NC(=O)C1CCCc2c(-c3ccc(C(F)(F)F)cc3)n[nH]c21 (racemic) |  | inactive | inactive
11 | Cn1c(-c2n[nH]c3c2CCCC3C(N)=O)cc2ccccc21 (racemic) | 2700 nM | inactive | inactive
12 | CC1(C)Cc2c(-c3ccc(Cl)c(Cl)c3)n[nH]c2C(C(N)=O)C1 (racemic) |  | inactive | inactive
13 | CC1(C)CCC(C(N)=O)c2[nH]nc(-c3ccc(Cl)cc3)c21 (racemic) |  | inactive | inactive
14 | Cn1c(-c2n[nH]c3c2CC(C)(C)CC3C(N)=O)cc2ccccc21 (racemic) |  | inactive | inactive
15 | CC1(C)Cc2c(-c3ccc(Cl)cc3)n[nH]c2C(C(N)=O)C1 (racemic) | 800 nM | inactive | inactive
16 | NC(=O)C1CCCc2c(-c3cc4ccccc4o3)n[nH]c21 (racemic) | 3100 nM | inactive | inactive
17 | CCOC(=O)C1CCCc2c(-c3ccc(Cl)c(F)c3)n[nH]c21 (racemic) |  | inactive | inactive
18 | NC(=O)C1Cc2ccccc2Cc2c(-c3ccc(Cl)cc3)n[nH]c21 (racemic) |  | inactive | inactive
19 | NC(=O)C1CC2(Cc3c(-c4ccc(Cl)cc4)n[nH]c31)OCCO2 (racemic) |  | inactive | inactive
20 | NC(=O)C1CCCCCc2c(-c3ccc(Cl)cc3)n[nH]c21 (racemic) |  | inactive | inactive

Results, then the compound that gave them:

Row | IC50 [1] | inhibition [2] | inhibition [3] | SMILES
21 | 1200 nM |  |  | NC(=O)C1CCCc2c(-c3ccc(Cl)c(Cl)c3)n[nH]c21 (racemic)
22 |  | inactive | inactive | NC(=O)C1CCCc2c(-c3ccc(F)cc3)n[nH]c21 (racemic)
23 | 6200 nM | inactive | inactive | Cc1ccc(-c2n[nH]c3c2CCCC3C(N)=O)cc1 (racemic)
24 | 11000 nM | inactive | inactive | NC(=O)C1CCCc2c(-c3cc(Br)cs3)n[nH]c21 (racemic)
25 | 1900 nM | inactive | inactive | NC(=O)C1CCCc2c(-c3ccc(Br)cc3)n[nH]c21 (racemic)
26 |  | inactive | inactive | NC(=O)C1CCCc2c(-c3cccc(Cl)c3)n[nH]c21 (racemic)
27 |  | inactive | inactive | NC(=O)C1CCCc2c(-c3cccs3)n[nH]c21 (racemic)
28 | 2600 nM | inactive | inactive | NC(=O)C1CCCc2c(-c3ccc(Cl)c(F)c3)n[nH]c21 (racemic)
29 |  | inactive | inactive | COc1ccc(-c2n[nH]c3c2CCCC3C(N)=O)cc1 (racemic)
30 |  | inactive | inactive | NC(=O)C1CCCc2c(-c3cc4cc(Br)ccc4s3)n[nH]c21 (racemic)
31 |  | inactive | inactive | NC(=O)C1CCCc2c(-c3ccccc3Cl)n[nH]c21 (racemic)
32 |  | inactive | inactive | NC(=O)C1CCCc2c(-c3ccc(Cl)cc3Cl)n[nH]c21 (racemic)
33 |  | inactive | inactive | NC(=O)C1CCCc2c(-c3ccccc3)n[nH]c21 (racemic)
34 | 1700 nM | inactive | inactive | NC(=O)C1CCCc2c(-c3cc4ccccc4s3)n[nH]c21 (racemic)
35 |  | inactive | inactive | NC(=O)C1CCCc2c(-c3csc4ccccc34)n[nH]c21 (racemic)
36 | 1000 nM | inactive | inactive | NC(=O)C1CCCc2c(-c3ccc(Cl)cc3)n[nH]c21 (racemic)
